Assay results from publication PMC12117998, “First Steps toward the Design of Peptides that Influence the Intracellular Palmitoylation Machinery” (Chembiochem, 2025).
No end group written: not given here.

Key:
MDA‐MB‐231 = test: Cell viability assay (resazurin); type: cell-based; conditions: MDA‐MB‐231, 24 h, CF‐labeled peptides, n = 3 (Figure 3B)
Description: (§1) HeLa (13,000), MDA‐MB‐231 (26,000), HFF‐1 (16,000) cells, mEGFP‐HRas (18,000), and SW480 and SW620 (15,000) were seeded into a 96‐well plate. Cells were treated with suitable peptide concentrations diluted in the corresponding serum‐free culture medium. After 24 h incubation under standard growth conditions, the cells were washed once with PBS. The positive control was treated for 10 min with 70% EtOH. To test the viability, cells were treated with a resazurin solution (In Vitro Toxicology Assay Kit, resazurin based, Sigma) and incubated for a further 1–2 h. The product resorufin was measured at 595 nm (λex = 550 nm) on an infinite M200 plate reader (Tecan) and normalized to the untreated negative control cells.

HeLa cells = test: Cell viability assay (resazurin); type: cell-based; conditions: 24 h, CF‐labeled peptides, n = 3 (Figure 3A)
Description: as §1

HeLa mEGFP‐HRas cells = test: Cell viability assay (resazurin); type: cell-based; conditions: 24 h, n = 3 (Figure S11A)
Description: as §1

[1] = Peptide incubation in media and identification of peptide species (LC-MS); type: physicochemical
Description: Hela cells (15,000) were seeded into a 96-well plate. Cells were treated with suitable peptide concentrations diluted in the corresponding serum-free culture medium. After 1 h peptide incubation under standard growth conditions, the positive control was either directly treated with lysis solution or the supernatant was exchanged for serum-free culture medium and the plate was incubated for further 5 h under growing conditions. The CytoTox-ONE™ Reagent was added and incubated at RT for 10 minutes. Finally, the Stop Solution was added and the fluorescence was measured at 595 nm (λex = 550 nm) on an infinite M200 plate reader (Tecan) and normalized to the positive control cells.
Red blood cells (RBCs) were washed three times in PBS by centrifug ing at 4 °C and 3,000 x g for 5 min and diluted to 5% in PBS. The desired peptide concentrations diluted in PBS were added into a 96-well plate. Next, 5% RBCs in PBS were added into the wells and incubated for 24 h at 37 °C and 5% CO2. As a positive control, RBCs were mixed with 10% Triton X-100 in PBS. After the incubation time was completed, the plate was centrifuged at 2,500 x g for 3 min at RT and 100 μL of the supernatant was transferred into a fresh 96 -well plate. Lastly, the absorption (λ=560 nm) was measured on the infinite M200 plate reader (Tecan). For the evaluation, the measured absorption of the Triton-X-100 treatment was set to a hemolysis rate […]
30,000 HeLa cells were seeded into an 8-well. Cells were stained for 10 min with the Hoechst 33342 nuclear dye and transferred to the microscope UltraView VoX Spinning Disk Confocal Microscope (Perkin Elmer). 5 µM CF-DC-2 were added to the cells. Cells were imaged on a Plan-Apo Tirf 60X oil objective (NA 1.49, Nikon) at 37°C a nd 5% CO2. […]
mixed with 5 µl TFA. […] Finally, the different peptide species were analyzed by analytical HPLC ESI-MS (LTQ XL, Thermo Scientific) using a gradient of 10% to 60% of acetonitrile (ACN) in ddH2O + 0.1% formic acid (FA) on an Aeris 3.6 µm PEPTIDE XB-C18 100 LC column (Phenomenex).

human 6His‐ZDHHC7 = molecular target: T1, human 6His‐ZDHHC7 (Homo sapiens, UniProt Q9NXF8); test: In vitro palmitoylation assay (LC‐MS); type: biochemical; conditions: 50 μM CF‐labeled peptide, 37 °C, LC‐MS (Figure 4)
T1 construct: 6His; purchased Proteintech
T1 sequence (Q9NXF8 1-308): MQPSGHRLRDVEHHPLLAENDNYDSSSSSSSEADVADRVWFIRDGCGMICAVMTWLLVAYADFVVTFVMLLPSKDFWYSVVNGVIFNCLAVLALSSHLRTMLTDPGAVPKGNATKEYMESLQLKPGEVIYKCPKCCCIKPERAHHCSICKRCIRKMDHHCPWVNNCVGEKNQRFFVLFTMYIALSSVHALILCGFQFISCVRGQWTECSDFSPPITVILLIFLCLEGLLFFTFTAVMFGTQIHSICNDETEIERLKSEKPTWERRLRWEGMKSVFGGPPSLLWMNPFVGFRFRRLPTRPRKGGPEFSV
Description: The 50 μM CF‐labeled peptides were incubated with 100 nM human 6His‐ZDHHC7 (Proteintech) and 100 μM palmitoyl‐CoA (Santa Cruz Biotechnology) in reaction buffer (50 mM HEPES, 150 mM NaCl, 1 mM EDTA, 1 mM (tris(2‐carboxyethyl)phosphine) (TCEP), 0.3 mM DDM, pH 7.0) for 2 h at 37 °C. Control reactions without ZDHHC7 or palm‐CoA were incubated with the appropriate volume of reaction buffer. Afterward, the reaction was centrifuged for 5 min at 13000 rpm. The precipitate was dissolved in DMSO/ACN (3:2, v/v). To enrich the peptide from the supernatant, C8 ZipTips were used. All samples were analyzed on the LC MS‐8060 triple quadrupole ESI‐MS (Shimadzu). The fluorescence intensity (λex = 493 nm, λem = 517 nm) of the samples was measured on an EC 160/2 NUCLEODUR 300‐5 C18 ec column using linear gradients from 20% to 70 % ACN in ddH2O + 0.1% FA over 7 min.

GLRKRLRKFRNKKMDHHCPW-NH2 [DC‐2, CPP sC18* fused to the DHHC motif derived from ZDHHC2/3/6/7/15/16/20]
cytotoxicity (cell viability) (MDA‐MB‐231): most active peptide | cytotoxicity (cell viability) (HeLa cells): most active peptide | cytotoxicity at 100 μM (HeLa mEGFP‐HRas cells): did not harm the cells | peptide species observed in medium lacking L‐cystine ([1]; 5 µM CF-DC-2 in serum-free medium lacking L-cystine and L-methionine, LC‐MS (Figure S8A)): mostly reduced peptide was observed | peptide species observed in normal cell culture medium ([1]; 5 µM CF-DC-2 in serum-free medium, before addition to HeLa cells and after 30 min at 37 °C, LC‐MS, Δmass = +119 Da (Figure S8A)): S‐cysteinylation at the cysteine | disulfide dimer formation in normal cell culture medium ([1]; 5 µM CF-DC-2 in serum-free medium, before addition to HeLa cells or after 30 min at 37 °C, LC‐MS (Figure S8A)): did not observe the disulfide dimer | palmitoylation in presence of ZDHHC7 (human 6His‐ZDHHC7; 100 nM ZDHHC7, 100 μM palmitoyl‐CoA, pH 7.0, 2 h): palmitoylated | palmitoylation in absence of ZDHHC7 (auto‐palmitoylation) (human 6His‐ZDHHC7; 100 μM palmitoyl‐CoA, no ZDHHC7, pH 7.0, 2 h): auto‐palmitoylation
